Source: ChEMBL document CHEMBL4673355, “Thiacalixarene based quaternary ammonium salts as promising antibacterial agents” (Bioorg Med Chem, 2021)
≈ marks a conversion by molar mass, not a printed value. Where “and” joins values, the source holds several entries; their conditions need not be identical. Identical values can stand only once.

Experiments:
Pseudomonas aeruginosa [1] = test: Antibacterial activity against Pseudomonas aeruginosa ATCC 27853 by CLSI broth microdilution method; format: functional
Escherichia coli [2] = test: Bactericidal activity against Escherichia coli ATCC 25922; format: functional
Staphylococcus aureus [3] = test: Antibacterial activity against Staphylococcus aureus ATCC 29223 by CLSI broth microdilution method; format: functional
Staphylococcus aureus [4] = test: Bactericidal activity against Staphylococcus aureus ATCC 29213; format: functional
Escherichia coli [5] = test: Antibacterial activity against Escherichia coli ATCC 25922 by CLSI broth microdilution method; format: functional
Enterococcus faecalis [6] = test: Antibacterial activity against Enterococcus faecalis ATCC 29212 by CLSI broth microdilution method; format: functional
Enterococcus faecalis [7] = test: Bactericidal activity against Enterococcus faecalis ATCC 29212; format: functional
Staphylococcus aureus [8] = test: Bactericidal activity against Staphylococcus aureus ATCC 29223; format: functional
Staphylococcus aureus [9] = test: Antibacterial activity against Staphylococcus aureus ATCC 29213 by CLSI broth microdilution method; format: functional
[10] = system: Staphylococcus epidermidis; test: Bactericidal activity against Staphylococcus epidermidis assessed as reduction in bacterial growth incubated for 24 hrs followed by replating on MH broth and further incubated for 24 hrs by CLSI broth microdilution method; format: functional; conditions: Staphylococcus epidermidis, read-out: MBC
[11] = Antibacterial activity against […] resistant Moraxella sp.764 clinical isolate assessed as reduction in bacterial growth incubated for 24 hrs by CLSI broth microdilution method; format: functional; conditions: Moraxella catarrhalis
Staphylococcus aureus [12] = test: Antibacterial activity against methicillin- resistant Staphylococcus aureus 2020 clinical isolate assessed as reduction in bacterial growth incubated for 24 hrs by CLSI broth microdilution method; format: functional
Proteus sp. = test: Antibacterial activity against […] resistant Proteus sp. clinical isolate 17 assessed as reduction in bacterial growth incubated for 24 hrs by CLSI broth microdilution method; format: functional; conditions: Proteus sp. (in: enterobacteria)
Staphylococcus aureus [13] = test: Bactericidal activity against Staphylococcus aureus ATCC 29213 assessed as reduction in bacterial growth incubated for 24 hrs followed by replating on MH broth and further incubated for 24 hrs by CLSI broth microdilution method; format: functional; conditions: Staphylococcus aureus, ATCC 29213; time 48 hrs; read-out: MBC
[14] = Antibacterial activity against […] resistant Moraxella sp.829 clinical isolate assessed as reduction in bacterial growth incubated for 24 hrs by CLSI broth microdilution method; format: functional; conditions: Moraxella catarrhalis
[15] = system: Staphylococcus intermedius; test: Antibacterial activity against methicillin- resistant Staphylococcus intermedius 1143 clinical isolate assessed as reduction in bacterial growth incubated for 24 hrs by CLSI broth microdilution method; format: functional
Staphylococcus aureus [16] = test: Antibacterial activity against methicillin- resistant Staphylococcus aureus 983 clinical isolate assessed as reduction in bacterial growth incubated for 24 hrs by CLSI broth microdilution method; format: functional
Klebsiella sp. [17] = test: Antibacterial activity against […] resistant Klebsiella sp. clinical isolate 12 assessed as reduction in bacterial growth incubated for 24 hrs by CLSI broth microdilution method; format: functional
Bacillus subtilis [18] = test: Bactericidal activity against Bacillus subtilis 168 assessed as reduction in bacterial growth incubated for 24 hrs followed by replating on MH broth and further incubated for 24 hrs by CLSI broth microdilution method; format: functional; conditions: Bacillus subtilis, 168, 24 h
[19] = Selectivity index, ratio of CC50 for human HSF cells to MIC for Pseudomonas aeruginosa ATCC 27853; format: toxicity; conditions: for selectivity ratio: HSF cells
[20] = Antibacterial activity against […] resistant Moraxella sp.765 clinical isolate assessed as reduction in bacterial growth incubated for 24 hrs by CLSI broth microdilution method; format: functional; conditions: Moraxella catarrhalis
Acinetobacter [21] = test: Antibacterial activity against […] resistant Acinetobacter spp. clinical isolate 3 assessed as reduction in bacterial growth incubated for 24 hrs by CLSI broth microdilution method; format: functional
Klebsiella sp. [22] = test: Antibacterial activity against […] resistant Klebsiella sp. clinical isolate 11 assessed as reduction in bacterial growth incubated for 24 hrs by CLSI broth microdilution method; format: functional
Pseudomonas aeruginosa [23] = test: Antibacterial activity against Pseudomonas aeruginosa ATCC 27853 assessed as reduction in bacterial growth incubated for 24 hrs by CLSI broth microdilution method; format: functional
Bacillus subtilis [24] = test: Antibacterial activity against Bacillus subtilis 168 assessed as reduction in bacterial growth incubated for 24 hrs by CLSI broth microdilution method; format: functional
Escherichia coli [25] = test: Bactericidal activity against Escherichia coli ATCC 25922 assessed as reduction in bacterial growth incubated for 24 hrs followed by replating on MH broth and further incubated for 24 hrs by CLSI broth microdilution method; format: functional
Acinetobacter [26] = test: Antibacterial activity against […] resistant Acinetobacter spp. clinical isolate 5 assessed as reduction in bacterial growth incubated for 24 hrs by CLSI broth microdilution method; format: functional
Pseudomonas aeruginosa [27] = test: Bactericidal activity against Pseudomonas aeruginosa ATCC 27853 assessed as reduction in bacterial growth incubated for 24 hrs followed by replating on MH broth and further incubated for 24 hrs by CLSI broth microdilution method; format: functional
Staphylococcus aureus [28] = test: Antibacterial activity against methicillin- resistant Staphylococcus aureus 967 clinical isolate assessed as reduction in bacterial growth incubated for 24 hrs by CLSI broth microdilution method; format: functional
[29] = system: Staphylococcus haemolyticus; test: Antibacterial activity against methicillin- resistant Staphylococcus haemolyticus 837 assessed as reduction in bacterial growth incubated for 24 hrs by CLSI broth microdilution method; format: functional
Acinetobacter [30] = test: Antibacterial activity against […] resistant Acinetobacter spp. clinical isolate 1 assessed as reduction in bacterial growth incubated for 24 hrs by CLSI broth microdilution method; format: functional
Pseudomonas = test: Antibacterial activity against methicillin- resistant Pseudomonas spp. clinical isolate 6 assessed as reduction in bacterial growth incubated for 24 hrs by CLSI broth microdilution method; format: functional
Staphylococcus aureus [31] = test: Antibacterial activity against methicillin- resistant Staphylococcus aureus 25 clinical isolate assessed as reduction in bacterial growth incubated for 24 hrs by CLSI broth microdilution method; format: functional
[32] = system: Staphylococcus epidermidis; test: Antibacterial activity against Staphylococcus epidermidis assessed as reduction in bacterial growth incubated for 24 hrs by CLSI broth microdilution method; format: functional
Klebsiella pneumoniae [33] = test: Bactericidal activity against Klebsiella pneumoniae ATCC 1813 assessed as reduction in bacterial growth incubated for 24 hrs followed by replating on MH broth and further incubated for 24 hrs by CLSI broth microdilution method; format: functional
[34] = Selectivity index, ratio of CC50 for human HSF cells to MIC for Klebsiella pneumoniae ATCC 1813; format: toxicity; conditions: for selectivity ratio: HSF cells
[35] = Selectivity index, ratio of CC50 for human HSF cells to MIC for Escherichia coli ATCC 25922; format: toxicity
Klebsiella pneumoniae [36] = test: Antibacterial activity against Klebsiella pneumoniae ATCC 1813 assessed as reduction in bacterial growth incubated for 24 hrs by CLSI broth microdilution method; format: functional; conditions: Klebsiella pneumoniae, ATCC 1813, 24 h, read-out: MIC
[37] = Cytotoxicity against human HSF cells assessed as reduction in cell viability incubated for 72 hrs by MTT assay; format: cell-based, HSF (VGS)
[38] = Selectivity index, ratio of CC50 for human HSF cells to MIC for Bacillus subtilis 168; format: toxicity; conditions: HSF cells
[39] = Selectivity index, ratio of CC50 for human HSF cells to MIC for Staphylococcus epidermidis; format: toxicity; conditions: HSF cells
[40] = Selectivity index, ratio of CC50 for human HSF cells to MIC for Staphylococcus aureus ATCC 29213; format: toxicity; conditions: HSF cells
Escherichia coli [41] = test: Antibacterial activity against Escherichia coli ATCC 25922 assessed as reduction in bacterial growth incubated for 24 hrs by CLSI broth microdilution method; format: functional; conditions: Escherichia coli, ATCC 25922, 24 h, read-out: MIC
Staphylococcus aureus [42] = test: Antibacterial activity against Staphylococcus aureus ATCC 29213 assessed as reduction in bacterial growth incubated for 24 hrs by CLSI broth microdilution method; format: functional; conditions: Staphylococcus aureus, ATCC 29213, 24 h, read-out: MIC
[43] = Enterococcus faecalis, ATCC 29212, read-out: MIC
[44] = Pseudomonas aeruginosa, ATCC 27853, 24 h, read-out: MIC
[45] = Bacillus subtilis, 168, 24 h, read-out: MIC
[46] = Staphylococcus epidermidis, read-out: MIC

## N=C(N)NCCc1cc2c(O)c(c1)Cc1cc(CCNC(=N)N)cc(c1O)Cc1cc(CCNC(=N)N)cc(c1O)Cc1cc(CCNC(=N)N)cc(c1O)C2.O=C(O)C(F)(F)F.O=C(O)C(F)(F)F.O=C(O)C(F)(F)F.O=C(O)C(F)(F)F
Pseudomonas aeruginosa [1]
  MIC: 32 µg/mL
Escherichia coli [2]
  MBC: 256 µg/mL
Staphylococcus aureus [3]
  MIC: 8 µg/mL
Staphylococcus aureus [4]
  MBC: 256 µg/mL
Escherichia coli [5]
  MIC: 4 µg/mL
Enterococcus faecalis [6]; [43]
  MIC: 32 µg/mL
Enterococcus faecalis [7]
  MBC: > 256 µg/mL
Staphylococcus aureus [8]
  MBC: 256 µg/mL
Staphylococcus aureus [9]
  MIC: 8 µg/mL

## CC(C)(C)c1cc2c(OCCCNC(=N)N)c(c1)Cc1cc(C(C)(C)C)cc(c1OCCCNC(=N)N)Cc1cc(C(C)(C)C)cc(c1OCCCNC(=N)N)Cc1cc(C(C)(C)C)cc(c1OCCCNC(=N)N)C2.O=C(O)C(F)(F)F.O=C(O)C(F)(F)F.O=C(O)C(F)(F)F.O=C(O)C(F)(F)F
Enterococcus faecalis [6]
  MIC: 4 µg/mL and 8 µg/mL
Enterococcus faecalis [6]; [43]
  MIC: 8 µg/mL

## CCCCCCCCCC[N+](C)(C)CCCNC(=O)COc1c2cc(C(C)(C)C)cc1Sc1cc(C(C)(C)C)cc(c1OCC(=O)NCCC[N+](C)(C)CCCCCCCCCC)Sc1cc(C(C)(C)C)cc(c1OCC(=O)NCCC[N+](C)(C)CCCCCCCCCC)Sc1cc(C(C)(C)C)cc(c1OCC(=O)NCCC[N+](C)(C)CCCCCCCCCC)S2.[Cl-].[Cl-].[Cl-].[Cl-]
[10]
  MBC: 16 µg/mL
[11]
  MIC: > 64 µg/mL
Staphylococcus aureus [12]
  MIC: 32 µg/mL
Proteus sp.
  MIC: > 64 µg/mL
Staphylococcus aureus [13]
  MBC: 8 µg/mL
[14]
  MIC: > 64 µg/mL
[15]
  MIC: 2 µg/mL
Staphylococcus aureus [16]
  MIC: 32 µg/mL
Klebsiella sp. [17]
  MIC: > 64 µg/mL
Bacillus subtilis [18]
  MBC: 32 µg/mL
[19]
  Ratio: < 0.5
  selectivity ratio: 0.5
[20]
  MIC: > 64 µg/mL
Acinetobacter [21]
  MIC: > 64 µg/mL
Klebsiella sp. [22]
  MIC: > 64 µg/mL
Pseudomonas aeruginosa [23]; 24 h
  MIC: >64 µg/mL
Pseudomonas aeruginosa [23]; [44]
  MIC: 64 µg/mL
Bacillus subtilis [24]
  MIC: 4 µg/mL
Bacillus subtilis [24]; [45]
  MIC: 4 µg/mL
Escherichia coli [25]
  MBC: 64 µg/mL
Acinetobacter [26]
  MIC: > 64 µg/mL
Pseudomonas aeruginosa [27]
  MBC: > 64 µg/mL
Staphylococcus aureus [28]
  MIC: 32 µg/mL
[29]
  MIC: 32 µg/mL
Acinetobacter [30]
  MIC: > 64 µg/mL
Pseudomonas
  MIC: > 64 µg/mL
Staphylococcus aureus [31]
  MIC: 4 µg/mL
[32]
  MIC: 4 µg/mL
[32]; [46]
  MIC: 8 µg/mL
Klebsiella pneumoniae [33]
  MBC: 32 µg/mL
[34]
  Ratio: 1 and 3

## [H]/N=C(\N/C(=N/[H])NCCCCCCNC(=N)NC(=N)Nc1ccc(Cl)cc1)Nc1ccc(Cl)cc1 [CHLORHEXIDINE]
[35]
  selectivity ratio: 5.48
[19]
  selectivity ratio: 1.37
Klebsiella pneumoniae [36]
  MIC: 2 µg/mL (≈ 3.96 µM)
[37]
  CC50 at 72 h: 5.48 µg/mL (≈ 10.8 µM)
Pseudomonas aeruginosa [23]; [44]
  MIC: 4 µg/mL (≈ 7.91 µM)
Bacillus subtilis [24]; [45]
  MIC: 2 µg/mL (≈ 3.96 µM)
[38]
  selectivity ratio: 2.74
[39]
  selectivity ratio: 5.48
[40]
  selectivity ratio: 2.74
[32]; [46]
  MIC: 1 µg/mL (≈ 1.98 µM)
Escherichia coli [41]
  MIC: 1 µg/mL (≈ 1.98 µM)
[34]
  selectivity ratio: 2.74
Staphylococcus aureus [42]
  MIC: 2 µg/mL (≈ 3.96 µM)

## CCCCCCCCCCCCCC(=O)NCCC[N+](C)(C)Cc1ccccc1.[Cl-] [MIRAMISTIN]
[10]
  MBC: 32 µg/mL
[11]
  MIC: 64 µg/mL
[35]
  selectivity ratio: 0.15
Staphylococcus aureus [12]
  MIC: 8 µg/mL
Proteus sp.
  MIC: > 64 µg/mL
Staphylococcus aureus [13]
  MBC: 32 µg/mL
[14]
  MIC: 32 µg/mL
[15]
  MIC: 8 µg/mL
Staphylococcus aureus [16]
  MIC: 4 µg/mL
Klebsiella sp. [17]
  MIC: > 64 µg/mL
Bacillus subtilis [18]
  MBC: 64 µg/mL
[19]
  selectivity ratio: 0.15
[20]
  MIC: 64 µg/mL
Acinetobacter [21]
  MIC: 64 µg/mL
Klebsiella sp. [22]
  MIC: 64 µg/mL
Klebsiella pneumoniae [36]
  MIC: 64 µg/mL
[37]
  CC50 at 72 h: 9.4 µg/mL
Pseudomonas aeruginosa [23]; [44]
  MIC: 64 µg/mL
Bacillus subtilis [24]; [45]
  MIC: 8 µg/mL
Escherichia coli [25]
  MBC: 64 µg/mL
[38]
  selectivity ratio: 1.2
Acinetobacter [26]
  MIC: > 64 µg/mL
Pseudomonas aeruginosa [27]
  MBC: 64 µg/mL
Staphylococcus aureus [28]
  MIC: 16 µg/mL
[29]
  MIC: 64 µg/mL
[39]
  selectivity ratio: 2.4
Acinetobacter [30]
  MIC: 64 µg/mL
Pseudomonas
  MIC: > 64 µg/mL
Staphylococcus aureus [31]
  MIC: 0.5 µg/mL
[40]
  selectivity ratio: 0.6
[32]; [46]
  MIC: 4 µg/mL
Escherichia coli [41]
  MIC: 64 µg/mL
Klebsiella pneumoniae [33]
  MBC: 64 µg/mL
[34]
  selectivity ratio: 0.15
Staphylococcus aureus [42]
  MIC: 16 µg/mL
